Laboratory results from PubChem BioAssay AID504313 (Emory University Molecular Libraries Screening Center, 2011).
pIC50: −log10 of the molar value. Calls of active or inactive are those of the source. How the calls were made is not given here.

target: X-box-binding protein 1 (Homo sapiens) (UniProt P17861); assay: inhibitors of XBP1 reporter signal, dose response, counter-screen, cell-based (AID 504313); conditions: XBP1 reporter cell assay, percent of control;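 further: CHO cells carrying an XBP1 reporter stimulated with tunicamycin; potency is for inhibition of the tunicamycin-induced reporter signal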

**Q.** How did the IC50 turn out when `Cc1ccc(C2(c3ccc(C)cc3)CC2C(=O)Nc2ccc([N+](=O)[O-])cc2O)cc1` (centres undefined) was run?
**A.** inactive

**Q.** For `Cc1cc(-c2n[nH]c(=S)n2/N=C/C(Br)=C/c2ccccc2)n[nH]1`, which IC50 is on record?
**A.** inactive

**Q.** `O=C1N(c2ccccc2)C[C@@H]2C[C@@H](c3cccs3)N3CCC[C@@]123` was tested. Which pIC50 did it give?
**A.** 5.55

**Q.** With `O=C(NNC(=O)c1cccc2ccccc12)c1ccc(-c2ccccc2)cc1` as the compound, how does the IC50 read?
**A.** > 10 µM (inactive)

**Q.** How did the IC50 turn out when `Cc1ccccc1/C=N/Nc1ccnc2cc(Cl)ccc12` was run?
**A.** > 10 µM (inactive)

**Q.** For `O=C(CCl)N1CCN2C(=O)c3ccccc3C12c1ccc(Cl)cc1` (centres undefined), which IC50 is on record?
**A.** inactive

**Q.** With `Cc1cccc(Nc2nc(N)c([N+](=O)[O-])c(N3CC(C)CC(C)C3)n2)c1` (centres undefined) as the compound, how does the IC50 read?
**A.** inactive

**Q.** `CCCCCn1c(=O)c(C(=O)Nc2nc3ccccc3[nH]2)c(O)c2ccccc21` was tested. Which pIC50 did it give?
**A.** 5.37

**Q.** `COc1ccc2nc(Nc3nc(CSc4nc5ccccc5[nH]4)cc(=O)[nH]3)nc(C)c2c1` was tested. Which IC50 did it give?
**A.** > 10 µM (inactive)

**Q.** For `N#CC(C#N)=C1C=CC=CN1/C(=C\c1ccccc1Cl)C(=O)c1ccccc1`, which IC50 is on record?
**A.** inactive

**Q.** How did the pIC50 turn out when `Cc1cc(/C=N/n2cnnc2)c(C)n1-c1ccc(OCc2ccccc2F)cc1` was run?
**A.** 5.31

**Q.** With `CCOC(=O)c1c(/N=C/c2c(O)n(-c3cccc(C)c3)c(=O)[nH]c2=O)sc2c1CCCC2` as the compound, how does the pIC50 read?
**A.** 6.28

**Q.** `NS(=O)(=O)c1ccc(N/N=C2/CCCCC2C2CCCCC2)c([N+](=O)[O-])c1` (centres undefined) was tested. Which pIC50 did it give?
**A.** 5.35

**Q.** `Cc1cccc(NC(=S)NC(NC(=O)OCc2ccccc2)C(Cl)(Cl)Cl)c1` (centres undefined) was tested. Which IC50 did it give?
**A.** > 10 µM (inactive)

**Q.** How did the IC50 turn out when `CN(C)c1ccc(/C=C2\SC(=O)N(CCc3nnc(N)s3)C2=O)cc1` was run?
**A.** inactive

**Q.** `O=C(CCl)Nc1cn(-c2ccccc2)nc1-c1ccccc1` was tested. Which IC50 did it give?
**A.** inactive

**Q.** Which IC50 does the source give for `COc1ccccc1C(=O)NC(=Nc1nc2ccccc2o1)NC(=O)c1ccccc1OC` here?
**A.** inactive

**Q.** With `Cc1cc2c(cc1C)CSC(c1c(O)ccc3ccccc13)SC2` as the compound, how does the IC50 read?
**A.** > 10 µM (inactive)

**Q.** How did the pIC50 turn out when `OC1(c2cccc(C(F)(F)F)c2)CCN(c2ncnc3c2[nH]c2ccc(F)cc23)CC1` was run?
**A.** 5.41

**Q.** With `O=C(COc1ccc(Cl)cc1Cl)NCCC1=CCCCC1` as the compound, how does the pIC50 read?
**A.** 5.37

**Q.** For `COc1cccc(-c2nnc(NC(=O)c3ccc(S(=O)(=O)N(CC(C)C)CC(C)C)cc3)o2)c1`, which IC50 is on record?
**A.** inactive

**Q.** Which IC50 does the source give for `Cc1ccc(CNCc2cc3c(C(C)(C)C)nn(-c4ccccc4)c3[nH]c2=O)cc1` here?
**A.** inactive

**Q.** With `CN1C2CCC1/C(=C/c1ccccn1)C(=O)/C2=C\c1ccccn1` as the compound, how does the pIC50 read?
**A.** 6.27

**Q.** `O=C(Nc1ccc(C(F)(F)F)cc1)c1cc(-c2cccnc2)nc2ccc(Br)cc12` was tested. Which IC50 did it give?
**A.** > 10 µM (inactive)
